The text below walks through data of ChEMBL document CHEMBL2094260, “Malaria Box Tuberculosis Screening Data”.

Data set [1] in a line: MMV: Cytotoxicity CRC and LD50 against HepG2. Conditions: human, HepG2 cells; read-out: LD50 (the source's name). Type of data set: toxicity, cell-based.
The subject of data set [2] is Mycobacterium tuberculosis. As to the kind of experiment: MMV: CRC and MIC90 against Mtb (replicating). It counts as functional.
Data set [3] has as its system Mycobacterium tuberculosis. Put plainly: MMV: Screen against Mtb, single point, replicating, at 25uM. It counts as functional.
Data set [4] concerns Mycobacterium tuberculosis. Put plainly: MMV: Screen against Mtb, single point, non replicating, at 25uM. It counts as functional.
In data set [5] the test system is Mycobacterium tuberculosis. Put plainly: MMV: CRC and MIC90 against Mtb (non replicating). It counts as functional.

In brackets after ≈: the same amount, converted by molar mass. A value given as a limit tells only on which side of the number the result lay.

A word on the MIC90: it is the lowest concentration that inhibits either 90% of growth or 90% of the strains tested, depending on the study. A word on the inhibition: it is the drop in the measured response relative to a control, in per cent.

`CN1CCN(c2ccc(Nc3c4ccccc4nc4ccccc34)cc2)CC1`: in data set [1], the CC50 came to 0.654 µM. Also, the values for the MIC90 in data set [2] and in data set [5] were 45.1 µM (≈ 16.6 µg/mL) and 27.7 µM (≈ 10.2 µg/mL), respectively. Also, the inhibition at 25 µM in data set [3] was 63.8%; in data set [4], 44.1%.
The corresponding values for `O=C(Nc1ccc(Cl)c(Cl)c1)Nc1ccc(Cl)c(Cl)c1` are 6.5 µM, 3.89 µM (≈ 1.36 µg/mL), 10.3 µM (≈ 3.61 µg/mL), 92.6% and 99.8%.
As for `C[n+]1c2ccccc2nc2ccc(NCCO)cc21`, the CC50 in data set [1] turned out to be 6.65 µM. Besides, the MIC90 is 6 µM in data set [2] and over 100 µM in data set [5]. For the same compound, the inhibition at 25 µM came to 84.9% in data set [3] and 37.7% in data set [4].
Consider `CCn1nc(-c2ccc(C(=O)OC)cc2)nc2c(=O)n(C)c(=O)nc1-2`, for which the CC50 in data set [1] turned out to be 1.36 µM. The MIC90 in data set [2] was over 100 µM; in data set [5] it was 33.6 µM (≈ 11.5 µg/mL). For the same compound, the inhibition at 25 µM is 55.9% in data set [3] and 65.1% in data set [4].
Take `CC(C)(C)CC(C)(C)NCC(O)COc1ccc(Cl)cc1Cl` (configuration not stated): in data set [1], the CC50 is 3.51 µM. Further, the values for the MIC90 in data set [2] and in data set [5] were 4.47 µM (≈ 1.56 µg/mL) and 40.2 µM (≈ 14 µg/mL), respectively. Further, the figures for the inhibition at 25 µM in data set [3] and in data set [4] were 98.5% and 30.2%, respectively.
For `O=C(Nc1ccc(Br)cc1)Nc1cccc(Cl)c1`, in that order: 18.6 µM, 44.6 µM (≈ 14.5 µg/mL), over 100 µM, 59.6% and 38.6%.
Take `Cc1ccc(Nc2nc(-c3ccccn3)cs2)cc1`: the MIC90 in data set [2] is 50.7 µM (≈ 13.6 µg/mL); in data set [5] it was over 100 µM. Also, the values for the inhibition at 25 µM in data set [3] and in data set [4] were 59.3% and 23%, respectively.
With `Cc1cc(NCCN2CCCCC2)c2ccc3ccccc3c2n1`, the CC50 in data set [1] is 2.04 µM. Moreover, the MIC90 in data set [2] was 39.1 µM (≈ 12.5 µg/mL); in data set [5], over 100 µM. For the same compound, the inhibition at 25 µM was determined as 71.1% in data set [3] and 15.5% in data set [4].
The corresponding values for `COc1cccc(Nc2nc(NCCO)c3ccccc3n2)c1` are 26 µM, 27.3 µM (≈ 8.47 µg/mL), over 100 µM, 81.8% and 14.8%.
For `Cc1nc2ccccc2c(O)c1CC=C(Cl)Cl`, in that order: 98.8 µM, 14.3 µM (≈ 3.83 µg/mL), over 100 µM, 91% and 0.782%.
The corresponding values for `COCCNCC(O)Cn1c2ccc(Cl)cc2c2cc(Cl)ccc21` (configuration not stated) are 3.92 µM, 11.6 µM (≈ 4.26 µg/mL), 56.1 µM (≈ 20.6 µg/mL), 99.4% and 26.7%.
Turning to `O=C(NC1CCN(Cc2ccccc2)CC1)c1cc(-c2ccncc2)nc2ccc(Cl)cc12`, the CC50 in data set [1] was determined as 7.1 µM. The MIC90 in data set [2] is 32.5 µM (≈ 14.9 µg/mL); in data set [5], over 100 µM. The inhibition at 25 µM was determined as 66% in data set [3] and 20.6% in data set [4].
For `OC(CNC1CCCCC1)Cn1c2ccccc2c2ccccc21` (configuration not stated), in that order: 4.97 µM, 55.9 µM (≈ 18 µg/mL), over 100 µM, 66.6% and 14%.
For the compound `Cc1ccc(Cl)cc1N1CCN(CCCNC(=O)C2CCN(c3nc4ccccc4[nH]3)CC2)CC1`, the CC50 in data set [1] was determined as 4.79 µM. Moreover, the MIC90 in data set [2] was 39 µM (≈ 19.3 µg/mL); in data set [5], over 100 µM. In addition, the values for the inhibition at 25 µM in data set [3] and in data set [4] were 75.7% and 26.9%, respectively.
As for `Oc1ccc2ccccc2c1CNc1nc2ccccc2[nH]1`, the CC50 in data set [1] turned out to be 14.1 µM. Moreover, in data set [2], the MIC90 is 74.1 µM (≈ 21.4 µg/mL). Besides, the inhibition at 25 µM in data set [3] was 76.1%; in data set [4], 35.9%.
Consider `Clc1cc(Br)ccc1-c1ccc(CNCC2CCNCC2)o1`, for which, in data set [1], the CC50 came to 1.78 µM. Besides, the MIC90 in data set [2] was 29.3 µM (≈ 11.2 µg/mL); in data set [5] it was over 100 µM. Besides, the inhibition at 25 µM was found to be 86.5% in data set [3] and 34.2% in data set [4].
`Cc1c(C)n(Cc2ccc(F)cc2)c2ccc(C(=O)NCc3ccco3)cc12`: the CC50 in data set [1] was over 100 µM. Also, the figures for the inhibition at 25 µM in data set [3] and in data set [4] were 69.5% and 11.7%, respectively.
Regarding `Cc1cc(C)c2nc(N3CCC(C(=O)NCCCN4CCC(N5CCCCC5)CC4)CC3)sc2c1`, the CC50 in data set [1] worked out at 2.55 µM. The MIC90 in data set [2] is 60.8 µM (≈ 30.3 µg/mL); in data set [5], over 100 µM. In addition, the inhibition at 25 µM was 60.2% in data set [3] and 15.2% in data set [4].
For `CC1CCN(Cc2ccc(NC(=O)c3cc4ccc5cccnc5c4[nH]3)cc2)CC1`, in that order: 4.42 µM, 33.3 µM (≈ 13.3 µg/mL), over 100 µM, 75.1% and 13.8%.
For `O=C(Nc1cccc(C(F)(F)F)c1)c1cc(Cl)ccc1O`, in that order: 0.99 µM, 3.87 µM (≈ 1.22 µg/mL), 3.46 µM (≈ 1.09 µg/mL), 95.9% and 102%.
Take `CC(C)(C)CC(C)(C)NCC(O)COc1ccc2c(c1)CCC2` (configuration not stated): the CC50 in data set [1] worked out at 8.32 µM. In addition, the MIC90 in data set [2] is 35.6 µM (≈ 11.4 µg/mL); in data set [5], over 100 µM. Moreover, the inhibition at 25 µM in data set [3] was 70.7%; in data set [4], -3.5%.
For `Cc1ccc(NC(=O)Nc2cccc(Cl)c2)cc1F`, in data set [1], the CC50 came out at 11.1 µM. For the same compound, the MIC90 in data set [2] was 28.8 µM (≈ 8.03 µg/mL); in data set [5], over 100 µM. Further, the figures for the inhibition at 25 µM in data set [3] and in data set [4] were 80.7% and 19.7%, respectively.
With `O=C(Nc1nc(-c2ccccn2)cs1)c1ccccc1Br`, the MIC90 was 48.7 µM (≈ 17.5 µg/mL) in data set [2] and 58.2 µM (≈ 21 µg/mL) in data set [5]. For the same compound, the inhibition at 25 µM was found to be 95.3% in data set [3] and 84.5% in data set [4].
Consider `O=C(Nc1ccc(F)c(Cl)c1)Nc1ccc(Cl)c(Cl)c1`, for which the CC50 in data set [1] is 4.33 µM. Moreover, the MIC90 turned out to be 4.03 µM (≈ 1.34 µg/mL) in data set [2] and 11 µM (≈ 3.67 µg/mL) in data set [5]. Besides, the figures for the inhibition at 25 µM in data set [3] and in data set [4] were 97.5% and 100%, respectively.
As to `CSc1ccccc1C(=O)Nc1nc(-c2ccccn2)cs1`, the CC50 in data set [1] is 12.1 µM. Besides, the MIC90 turned out to be 51.2 µM (≈ 16.8 µg/mL) in data set [2] and 79 µM (≈ 25.9 µg/mL) in data set [5]. In addition, the results for the inhibition at 25 µM in data set [3] and in data set [4] were 68.2% and 66.8%, respectively.
The corresponding values for `COc1ccc(Nc2nc(NCc3ccccc3)c3ccccc3n2)cc1` are 2.59 µM, 7.33 µM (≈ 2.61 µg/mL), 48.7 µM (≈ 17.4 µg/mL), 98% and 53.9%.
The corresponding values for `CCN(CC)CCCNc1nc(-c2ccc(Cl)cc2)nc2ccccc12` are 2.72 µM, 24.7 µM (≈ 9.11 µg/mL), over 100 µM, 95.3% and 17.1%.
On to `Cc1ccc(Nc2nc(NCCO)c3ccccc3n2)cc1C`, for which the CC50 in data set [1] is 5.5 µM. In addition, the results for the MIC90 in data set [2] and in data set [5] were 9.52 µM (≈ 2.94 µg/mL) and 82.6 µM (≈ 25.5 µg/mL), respectively. Also, the values for the inhibition at 25 µM in data set [3] and in data set [4] were 97.2% and 7.14%, respectively.
Regarding `CN(C)c1ccc(C(O)(c2ccc(N(C)C)cc2)c2ccc(N(C)C)cc2)cc1` [METHYLROSANILINE], the inhibition at 25 µM is 28.6% in data set [3] and 59.8% in data set [4].
